ChEMBL document CHEMBL1201862, “PubChem BioAssay data set” (2004)
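A five-concentration, 48-hour dose response in 96-well plates underlies each endpoint, interpolated linearly between surrounding concentrations. Abbreviation: GI50, concentration required for 50% inhibition of growth.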 Calls of active or inactive are those of the source. Rule as the data show it: active = GI50 up to about 1.1 µM and inactive = higher.

Key:
Assay in all cases: growth of human tumour cells (NCI), 48 h
DMS-114 = tested on: DMS-114
COLO 205 = tested on: COLO 205
SK-MEL-28 = tested on: SK-MEL-28
Malme-3M = tested on: Malme-3M
UACC-62 = tested on: UACC-62
OVCAR-4 = tested on: OVCAR-4
SK-MEL-5 = tested on: SK-MEL-5
SNB-78 = tested on: SNB-78
HCC 2998 = tested on: HCC 2998
RPMI-8226 = tested on: RPMI-8226
LXFL 529 = tested on: LXFL 529
786-0 = tested on: 786-0
SF-295 = tested on: SF-295
HT-29 = tested on: HT-29
RXF 393 = tested on: RXF 393
UACC-257 = tested on: UACC-257
SK-OV-3 = tested on: SK-OV-3
LOX IMVI = tested on: LOX IMVI
U-251 = tested on: U-251
SR = tested on: SR
M19-MEL = tested on: M19-MEL
KM12 = tested on: KM12
A549 = tested on: A549
HCT-116 = tested on: HCT-116
OVCAR-8 = tested on: OVCAR-8
IGROV-1 = tested on: IGROV-1
OVCAR-3 = tested on: OVCAR-3
NCI-H460 = tested on: NCI-H460
ACHN = tested on: ACHN
UO-31 = tested on: UO-31
SF-268 = tested on: SF-268
EKVX = tested on: EKVX
SW-620 = tested on: SW-620
OVCAR-5 = tested on: OVCAR-5
M14 = tested on: M14
NCI-H226 = tested on: NCI-H226
DLD-1 = tested on: DLD-1
HOP-92 = tested on: HOP-92
SN12C = tested on: SN12C
NCI-H23 = tested on: NCI-H23
HCT-15 = tested on: HCT-15
HOP-62 = tested on: HOP-62
RXF 631 = tested on: RXF 631
SNB-19 = tested on: SNB-19
CCRF-CEM = tested on: CCRF-CEM
HL-60 = tested on: HL-60
NCI-H522 = tested on: NCI-H522
SF-539 = tested on: SF-539
CAKI-1 = tested on: CAKI-1
K562 = tested on: K562
HOP-18 = tested on: HOP-18
TK-10 = tested on: TK-10
MOLT-4 = tested on: MOLT-4
SK-MEL-2 = tested on: SK-MEL-2
XF498 = tested on: XF498
A498 = tested on: A498
DMS-273 = tested on: DMS-273
SNB-75 = tested on: SNB-75
KM-20L2 = tested on: KM-20L2

Structure (SMILES): O=C1OC(CC(=O)c2ccccc2Cl)C(Cl)=C1Cl (stereo not drawn)
- GI50 (DMS-114): > 100 µM (inactive)
- GI50 (COLO 205): > 100 µM (inactive)
- GI50 (SK-MEL-28): > 100 µM (inactive)
- GI50 (Malme-3M): > 100 µM (inactive)
- GI50 (UACC-62): > 100 µM (inactive)
- GI50 (OVCAR-4): > 100 µM (inactive)
- GI50 (SK-MEL-5): > 100 µM (inactive)
- GI50 (SNB-78): 33 µM (inactive)
- GI50 (HCC 2998): > 100 µM (inactive)
- GI50 (RPMI-8226): > 100 µM (inactive)
- GI50 (LXFL 529): > 100 µM (inactive)
- GI50 (786-0): > 100 µM (inactive)
- GI50 (SF-295): > 100 µM (inactive)
- GI50 (HT-29): > 100 µM (inactive)
- GI50 (RXF 393): > 100 µM (inactive)
- GI50 (UACC-257): > 100 µM (inactive)
- GI50 (SK-OV-3): > 100 µM (inactive)
- GI50 (LOX IMVI): > 100 µM (inactive)
- GI50 (U-251): > 100 µM (inactive)
- GI50 (SR): > 100 µM (inactive)
- GI50 (M19-MEL): > 100 µM (inactive)
- GI50 (KM12): > 100 µM (inactive)
- GI50 (A549): > 100 µM (inactive)
- GI50 (HCT-116): > 100 µM (inactive)
- GI50 (OVCAR-8): > 100 µM (inactive)
- GI50 (IGROV-1): > 100 µM (inactive)
- GI50 (OVCAR-3): > 100 µM (inactive)
- GI50 (NCI-H460): > 100 µM (inactive)
- GI50 (ACHN): > 100 µM (inactive)
- GI50 (UO-31): > 100 µM (inactive)
- GI50 (SF-268): > 100 µM (inactive)
- GI50 (EKVX): > 100 µM (inactive)
- GI50 (SW-620): > 100 µM (inactive)
- GI50 (OVCAR-5): > 100 µM (inactive)
- GI50 (M14): > 100 µM (inactive)
- GI50 (NCI-H226): > 100 µM (inactive)
- GI50 (DLD-1): > 100 µM (inactive)
- GI50 (HOP-92): > 100 µM (inactive)
- GI50 (SN12C): > 100 µM (inactive)
- GI50 (NCI-H23): > 100 µM (inactive)
- GI50 (HCT-15): > 100 µM
- GI50 (HOP-62): > 100 µM (inactive)
- GI50 (RXF 631): 62.4 µM (inactive)
- GI50 (SNB-19): > 100 µM (inactive)
- GI50 (CCRF-CEM): 48.3 µM (inactive)
- GI50 (HL-60): > 100 µM (inactive)
- GI50 (NCI-H522): > 100 µM (inactive)
- GI50 (SF-539): > 100 µM (inactive)
- GI50 (CAKI-1): > 100 µM (inactive)
- GI50 (K562): > 100 µM (inactive)
- GI50 (HOP-18): > 100 µM (inactive)
- GI50 (TK-10): > 100 µM (inactive)
- GI50 (MOLT-4): > 100 µM (inactive)
- GI50 (SK-MEL-2): > 100 µM (inactive)

Structure (SMILES): C=CCN(N=O)C(=O)NCCCC(NC(C)=O)C(=O)NCc1ccccc1 (stereo not drawn)
- GI50 (DMS-114): > 100 µM (inactive)
- GI50 (COLO 205): > 100 µM (inactive)
- GI50 (SK-MEL-28): > 100 µM (inactive)
- GI50 (Malme-3M): > 100 µM (inactive)
- GI50 (UACC-62): > 100 µM (inactive)
- GI50 (OVCAR-4): > 100 µM (inactive)
- GI50 (SK-MEL-5): > 100 µM (inactive)
- GI50 (RPMI-8226): > 100 µM (inactive)
- GI50 (XF498): > 100 µM (inactive)
- GI50 (LXFL 529): > 100 µM (inactive)
- GI50 (786-0): > 100 µM (inactive)
- GI50 (SF-295): > 100 µM (inactive)
- GI50 (HT-29): > 100 µM (inactive)
- GI50 (RXF 393): > 100 µM (inactive)
- GI50 (UACC-257): > 100 µM (inactive)
- GI50 (A498): > 100 µM (inactive)
- GI50 (SK-OV-3): > 100 µM (inactive)
- GI50 (LOX IMVI): > 100 µM (inactive)
- GI50 (U-251): > 100 µM (inactive)
- GI50 (M19-MEL): > 100 µM (inactive)
- GI50 (KM12): > 100 µM (inactive)
- GI50 (A549): > 100 µM (inactive)
- GI50 (OVCAR-8): > 100 µM (inactive)
- GI50 (IGROV-1): > 100 µM (inactive)
- GI50 (OVCAR-3): > 100 µM (inactive)
- GI50 (NCI-H460): > 100 µM (inactive)
- GI50 (ACHN): > 100 µM (inactive)
- GI50 (UO-31): > 100 µM (inactive)
- GI50 (SF-268): > 100 µM (inactive)
- GI50 (EKVX): > 100 µM (inactive)
- GI50 (SW-620): > 100 µM (inactive)
- GI50 (OVCAR-5): > 100 µM (inactive)
- GI50 (M14): > 100 µM (inactive)
- GI50 (NCI-H226): > 100 µM (inactive)
- GI50 (HOP-92): 61.5 µM (inactive)
- GI50 (SN12C): > 100 µM (inactive)
- GI50 (DMS-273): > 100 µM (inactive)
- GI50 (NCI-H23): > 100 µM (inactive)
- GI50 (HCT-15): > 100 µM
- GI50 (HOP-62): > 100 µM (inactive)
- GI50 (RXF 631): > 100 µM (inactive)
- GI50 (SNB-19): > 100 µM (inactive)
- GI50 (CCRF-CEM): > 100 µM (inactive)
- GI50 (HL-60): > 100 µM (inactive)
- GI50 (SNB-75): > 100 µM (inactive)
- GI50 (NCI-H522): > 100 µM (inactive)
- GI50 (SF-539): 98.2 µM (inactive)
- GI50 (CAKI-1): > 100 µM (inactive)
- GI50 (K562): > 100 µM (inactive)
- GI50 (HOP-18): 10.9 µM (inactive)
- GI50 (TK-10): > 100 µM (inactive)
- GI50 (KM-20L2): > 100 µM (inactive)
- GI50 (MOLT-4): > 100 µM (inactive)
- GI50 (SK-MEL-2): > 100 µM (inactive)
